# Measured values taken from patent US20010041177A1, “Methods for detecting inflammation and inflammatory conditions” (priority 2000, published 2001).
# B1: IL-10: Interleukin-10 (originally known as cytokine synthesis inhibitory factor), a cytokine (protein, UniProt P22301 19-178, looked up)
# Interleukin-10: SPGQGTQSENSCTHFPGNLPNMLRDLRDAFSRVKTFFQMKDQLDNLLLKESLLEDFKGYLGCQALSEMIQFYLEEVMPQAENQDPDIKAHVNSLGENLKTLRLRLRRCHRFLPCENKSKAVEQVKNAFNKLQEKGIYKAMSEFDIFINYIEAYMTMKIRN
# B2: IL-4: interleukin-4, a cytokine (protein, UniProt P05112 25-153, looked up)
# Interleukin-4: HKCDITLQEIIKTLNSLTEQKTLCTELTVTDIFAASKNTTEKETFCRAATVLRQFYSHHEKDTRCLGATAQQFHRHKQLIRFLKRLDRNLWGLAGLNSCPVKEANQSTLENFLERLKTIMREKYSKCSS
# Columns and labels:
# [1] = tested on: monocyte CD163 expression; test: CD163 expression on monocytes of PBMCs cultured with mediators, staining and flow cytometric analysis; format: cell-based, human; settings: for increase of monocyte CD163 expression: PBMCs treated 24 hours, DEX 200 nM; for effect of cytokine alone on monocyte CD163 expression: at the concentrations tested
# Experimental: To assess whether different cytokines could influence CD163 expression, freshly isolated PBMCs were cultured for 24 hours in the presence of various cytokines, 200 nM DEX (as a positive control for CD163 upregulation), or control media. The cells were then subjected to staining and flow cytometric analysis.
# For cytokine treatment studies, isolated PBMCs were suspended in hepes buffered RPMI 1640/0.05% gentamicin/10% FBS at a concentration of 2.0×10^6 to 2.5×10^6 cells/ml and cultured in 96 well plates at 37° C. and 5% CO2 in the presence of various mediators (Table 1). Mononuclear cells were stained for flow cytometric analysis after 24 hours in culture unless otherwise indicated. This enhanced cell recovery because monocytes, which initially adhere to plastic vessels, transiently detach from culture wells at 24-48 hours.
# All staining procedures were performed at 4 C. Briefly, cultured PBMCs were incubated with normal human IgG (6 mg/ml) to block Fc receptor-specific binding of mAbs and 30 μg/ml of the isotype control mAb P3 or a saturating amount of mAb MAC2-48 (20 μg/ml) for one hour. Cells were then washed and stained for one hour with 17.5 μg/ml FITC labeled goat F(ab=)2 anti-mouse Ig. The cells were again washed and fixed with 1% methanol free formalin.
# Cell fluorescence of monocytes gated using forward and side scatter was analyzed using a Becton Dickenson FACScan (Franklin Lakes, N.J.). Mean fluorescence intensity (MFI) was calculated by subtracting the MFI of the P3 stained mononuclear cells from the MFI of the corresponding Mac2-48 stained cells.
# [2] = tested on: CD163 expression on monocytes; test: Monocytes cultured with LPS, DEX or IL-10, surface CD163 by immunofluorescence; format: cell-based, human; settings: monocytes cultured with the agent alone
# Experimental: In addition to testing the effects of cytokines in combination with glucocorticoids on levels of CD163, studies were performed to examine the effects of glucocorticoids in combination with lipopolysaccharide (LPS). […] However, when monocytes were cultured for 48 hours with DEX combined with LPS, their was a synergistic increase in CD163 expression, where the effect of DEX alone was increased by more than 2-fold when LPS treatment was added.
# [3] = tested on: CD163 mRNA; test: Northern blots of CD163 mRNA in treated monocytes; format: cell-based, human; settings: monocytes treated 8 hours; 5 ng/ml IL-10 or 10^-8 M FP
# Experimental: Monocytes were treated for 8 hours with either IL-10, the glucocorticoid FP or control media.
# Human monocytes were isolated and cultured overnight as described for western blots. Monocytes were then stimulated for 8 hours with 5 ng/ml IL-10 (R&D Systems) or 10^-8 M FP. Total RNA was isolated from IL-10 stimulated, glucocorticoid stimulated and control monocytes as described by Dreier, et al. (Dreier, J. et al. 1998. DNA Cell Biol. 17:321-323). 10 μg of total RNA per sample were electrophoretically separated in a 1% agarose, 2% formaldehyde gel and transferred onto a Hybond N^+nylon membrane (Amersham Inc., Arlington Heights, Ill.) in 20x saline-sodium citrate (SSC) using an LKB 2016 VacuGene blotting apparatus. Antisense RNA probes for northern hybridization were generated from linearized DNA templates using a digoxigenin RNA labeling kit (Boehringer Mannheim, Mannheim, Germany) and T7 RNA polymerase (New England Biolabs, Schwalbach, Germany) as described by the manufacturer. Prehybridization was performed at 68° C. for 1 hr in a high SDS hybridization buffer (7% SDS, 5x SSC, 50% formamide, 50 mM sodium phosphate, 2% casein, 0.1% N-lauroylsarcosine, pH 7.0). Subsequently the heat-denatured probes (10 minutes at 95° C.) were added to the prehybridization solution (100 ng/ml) and hybridized at 68° C. for 16 hours. […]
# [4] = tested on: monocyte surface CD163; settings: Droste et al. 1999; blocked by protease inhibitors; cited from earlier work
# [5] = tested on: monocyte surface CD163; test: Shedding of monocyte surface CD163 in vitro; format: cell-based, human; settings: cells pretreated with glucocorticoids plus LPS
# Experimental: Therefore, like PMA, LPS is capable of inducing CD163 shedding. LPS-induced shedding occurred even with monocytes that had been cultured for 48 hours in DEX and thus had 5- to 10-fold higher levels of surface CD163 than freshly isolated monocytes. […] This LPS-conferred resistance to subsequent LPS-induced shedding of CD163 is similar to reported endotoxin pre-conditioning for resistance to subsequent inflammatory insults.
# [6] = tested on: CD163 expression on monocytes; settings: purified monocytes, 2 days; cited from earlier work
molecule,measurement,setting,value
"C[C@@H]1C[C@H]2[C@@H]3CCC4=CC(=O)C=C[C@]4(C)[C@@]3(F)[C@@H](O)C[C@]2(C)[C@@]1(O)C(=O)CO [DEX, reference compound]",increase of monocyte CD163 expression,[1]; p<0.01,~7 fold
same,"surface CD163 on monocytes, single agent",[2],increased expression of CD163
"CCC(=O)O[C@]1(C(=O)SCF)[C@H](C)C[C@H]2[C@@H]3C[C@H](F)C4=CC(=O)C=C[C@]4(C)[C@@]3(F)[C@@H](O)C[C@@]21C [FP, reference compound]",CD163 mRNA levels,[3],increased from undetectable to strong bands
CCCCCCCCCCCCCC(=O)O[C@@H]1[C@@H](C)[C@@]2(O)[C@@H](C=C(CO)C[C@]3(O)C(=O)C(C)=C[C@@H]23)[C@@H]2C(C)(C)[C@]12OC(C)=O [PMA],shedding of surface CD163 from monocytes in culture,[4],induce rapid shedding of surface CD163
same,shedding of surface CD163 on subsequent treatment,[5],remained sensitive to PMA-induced shedding
GM-CSF: granulocyte-macrophage colony stimulating factor,effect of cytokine plus DEX on CD163 expression over DEX treatment alone,[1]; PBMCs 24 hours,does not enhance CD163 expression over DEX treatment alone
same,effect of cytokine alone on CD163 expression,[6],neither GM-CSF nor IL-4 alone had any effect
same,effect of cytokine plus DEX on CD163 expression,[6],synergistic effect
"IL-13: interleukin-13, a cytokine",effect of cytokine alone on monocyte CD163 expression,[1]; PBMCs 24 hours,did not upregulate CD163 expression
B1,increase of CD163 expression compared to control,"[1]; PBMCs 24 hours, 10 and 100 ng/ml IL-10, p<0.01",approximately 3.5 fold
same,increase of monocyte CD163 expression,[1]; p<0.01,approximately 4 fold
same,"surface CD163 on monocytes, single agent",[2],increased expression of CD163
same,CD163 mRNA levels,[3],increased from undetectable to strong bands
B2,effect of cytokine plus DEX on CD163 expression over DEX treatment alone,[1]; PBMCs 24 hours,does not enhance CD163 expression over DEX treatment alone
same,effect of cytokine alone on monocyte CD163 expression,[1]; PBMCs 24 hours,did not upregulate CD163 expression
same,effect of cytokine alone on CD163 expression,[6],neither GM-CSF nor IL-4 alone had any effect
same,effect of cytokine plus DEX on CD163 expression,[6],synergistic effect
